Read-outs that look alike come from different tables or passages of the source. Marks after values point to notes of the source that are not given here.
Assays:
Hepa1–6 tumors = experiment: Hepa1–6 mouse hepatocellular carcinoma model; type: in vivo
Procedure: The animals were fed ad libitum water (0.2-μm filtered, reverse osmosis, autoclaved), and standard irradiated rodent chow. The mice were housed on autoclaved, crushed corncob bedding, which was changed weekly, on a 12 h light cycle at 20–26 °C and 40–70% humidity.
The Hepa1–6 tumor cells were maintained in vitro in DMEM supplemented with 10% FBS at 37 °C in an atmosphere of 5% CO2 in air. Cells in the exponential growth phase were harvested and quantitated using a cell counter, adjusted to 5 × 10^7/mL in PBS before tumor inoculation.
Each mouse was inoculated subcutaneously in the right front flank region with Hepa1–6 tumor cells (5 × 10^6) in 0.1 mL PBS for tumor development. After tumor cell inoculation, the animals were checked daily for morbidity and mortality and for any effects of tumor growth or test articles on behavior such as mobility, food and water consumption, eye/hair matting, and any other abnormalities. Dosing started when the average tumor volume reached 98 mm^3. The anti-PD-1 antibody was dosed IP at 10 mg/kg twice per week (BIW), while ALG-031048 was dosed IT at 25 and 100 μg/animal on Days 1, 5, and 9. Tumor volumes were measured […], as described above.
(§1) Figure S6. A: Tumor regression in Hepa1‐6 tumor‐bearing […] mice upon IT treatment with three doses of 25 μg (light blue) or 100 μ g ALG‐031048 (dark blue), in comparison to treatment with 10 mg/kg anti‐PD‐1 antibody twice per week, 6 doses total (red). Vehicle‐treated animals are shown in black; shown are the mean tumor volumes ± standard deviation for each group of 10 animals.
(§2) Irregular, crater‐shaped tumors prevented accurate tumor volume measurement between Days 8‐
(§3) 25. Treatment started when tumors reached an average volume of 98 mm3. Statistical analysis pro‐ vided in Table S4. B: Tumor weight for each group at the end of the study. Statistical analysis pro‐ vided in Table S5. C: Plasma cytokine levels 6 hours after the first dose. Each symbol represents one animal as well as the mean of the group (n=10). Unpaired t‐test was used to compare different groups: all groups for al l cytokines were statistically significant from each other with P‐values of < 0.0001 with the following exceptions: vehicle vs anti‐PD‐1 were non‐significant (all cytokines); the […]

subcutaneous CT26 tumors [1] = settings: for Delay of tumor growth compared with vehicle / Delayed Response (TV > 10 and <2000 mm^3) / Treatment Failure (TV > 2000 mm^3) / Complete Response (TV < 10 mm^3) / Median Time to Endpoint: 3 × q3d; for Median Time to Endpoint: vehicle 17.0
Procedure: (§4) Each mouse was inoculated subcutaneously in the right flank with 3 × 10^5 CT26 cells (in 0.1 mL PBS) for tumor development.
(§5) PBS was used as the vehicle control. […] Vehicles and test compounds were administered IT q3d × 3 in a volume of 0.05 mL. SC administration was performed between the shoulder blades at a dosing volume of 10 mL/kg. Tumors were measured twice a week in two dimensions using calipers, and volume was calculated using Formula (1):Tumor Volume (mm^3) = 0.5 (w^2 × l)(1)
(§6) Here, w = width and l = length, in mm, of a tumor.
(§7) Tumor weight was estimated with the assumption that 1 mg is equivalent to 1 mm^3 of tumor volume.
(§8) Animals were euthanized when (1) their tumor reached the endpoint volume of 2000 mm^3, (2) their body weight loss exceeded 30%, or (3) on the last day of the study, whichever came first. The TTE for analysis was calculated for each mouse by the following Equation (2):TTE = (log10 (endpoint volume) − b)/m(2)
(§9) TTE is expressed in days, endpoint volume is expressed in mm^3, b is the intercept, and m is the slope of the line obtained via linear regression of a log-transformed tumor growth data set. […] Animals were weighed on Days 1–5, then twice weekly for the duration of the study.

subcutaneous CT26 tumors [2] = experiment: CT26 mouse colon carcinoma model
Procedure: as §4, §5, §6, §7, §8, §9

[3] = system: phosphodiesterase I from Crotalus adamanteus venom (SVPD)
plasma cytokines = experiment: Plasma cytokine levels in Hepa1–6 tumor-bearing mice; type: in vivo, mouse; settings: Hepa1–6, 6 hours after the first dose
Procedure: as §1, §2, §3

[4] = system: phosphodiesterase I from Crotalus adamanteus venom (SVPD); experiment: in vitro; settings: pH 8
[5] = system: HEK 293 cells lacking functional STING; experiment: HEK 293 STING Dual Null IRF reporter assay
Procedure: Assays were set up after allowing cells to adhere for 48 h. Compounds dissolved in water were serially diluted in dosing buffer containing 10 µg/mL of digitonin (MP Biomedicals, Solon, OH, USA). Media were aspirated from the cells, and 50 µL of buffer with compound was added in triplicate. […] The next day, 20 µL of media was transferred to two new plates, and either 50 µL of QuantiLuc™ (Invivogen) to measure IFN-β expression or 80 µL of QuantiBlue™ (Invivogen) to measure IRF activity were added. […] An aliquot of 100 µL of CellTiter-Glo® (Promega, Madison, WI, USA) was added to the original plate still containing the cells, and luminescence was determined to measure viability. All readouts were measured on an Envision plate reader from Perkin Elmer. Data were analyzed using GraphPad™ Prism’s version 8.0 [Agonist] vs. response—variable slope (four parameters) model.
with increasing concentrations of the STING agonists or IFN‐β. After 24 hours, IRF reporter activity

Plasma stability, human = type: in vitro ADME; settings: 37 °C, read-out: Plasma t½, Human
Procedure: The plasma stability assay was carried out on 96-well microtiter plates. The test compounds at 5 µM and the reference compound (propantheline) at 1 µM final concentration were incubated separately at 37 °C with mouse or human plasma for 0, 30, 60, and 240 min. At the end of each incubation time point, 300 μL of the quenching solution (50% acetonitrile, 50% methanol, and 0.05% formic acid) containing the internal standard was added to each well. The incubation plates were sealed, vortexed, and centrifuged at 4 °C for 15 min at 4000 rpm. The supernatant was transferred to fresh plates for LC/MS/MS analysis of the test compounds. The peak area ratios of each test compound over the internal standard were plotted against incubation time, and the t½ was calculated from the curve assuming first-order kinetics.

[6] = system: primary human immature dendritic cells; experiment: Cytokine release from immature dendritic cells; type: cell-based
Procedure: The iMDDCs harvested on Day 5 (25,000 cells/well) after differentiation from normal human CD14+ CD16− monocytes were stimulated with STING agonists for 24–48 h. An aliquot of iMDDCs was also cultured in maturation media for 24–48 h and used as a control containing RPMI 1640, 10% FBS, 2 mM L-glutamine, and human TNF-α (6000 IU/mL, Miltenyi Biotec). The supernatant from the plate was frozen to assess cytokine production, and cells were analyzed via flow cytometry.
CD11c+ monocyte‐derived dendritic cells. E: Live cells were selected based on live/dead staining
and cell size. F: Dot plot of size SSC‐A versus SSC‐H for doublet exclusion, gating on singlet cells.
G: Dot plot of CD209 vs CD11c to select CD209+CD11+ high monocyte‐derived dendritic cells.
Figure S4. Increased release of cytokines from iDCs after stimulation for 24 hours with 50 μ M of the […]

[7] = Table 2 study, 25 μg IT, n = 10
[8] = Table 2 study, 100 μg IT, n = 10
[9] = Table 3/4 study, 25 μg IT, n = 10

Structure (SMILES): CO[C@H]1[C@H]2OP(=O)(O)OC[C@@]34C[C@@H]3[C@@H](n3cnc5c(N)ncnc53)[C@H](O)[C@@H]4O[P@](=O)(S)OC[C@H]1O[C@H]2n1cnc2c(=O)[nH]c(N)nc21 [ALG-031048]
- Tumor weight at end of study (Hepa1–6 tumors; Hepa1–6, IT 25 and 100 μg): reduction in tumor weight
- Tumor reduction at end of study (Hepa1–6 tumors; Hepa1–6, three IT doses of 25 μg (Days 1, 5, 9)): 12%
- Mean tumor reduction at end of study (Hepa1–6 tumors; Hepa1–6, three IT doses of 100 μg (Days 1, 5, 9)): 88%
- Complete tumor regression, animals (Hepa1–6 tumors; Hepa1–6 model): 100%
- Delay of tumor growth compared with vehicle (subcutaneous CT26 tumors [1]; CT26, 1 mg/kg SC): 4.0 days
- Delay of tumor growth compared with vehicle (subcutaneous CT26 tumors [1]; CT26, 4 mg/kg SC): 21.0 days
- Time mice remained tumor-free after the last dose (subcutaneous CT26 tumors [1]; CT26, longest observation in any study): approximately 2.5 months
- Complete tumor suppression, initial CT26 tumor (subcutaneous CT26 tumors [1]; Figure 5B study, three IT doses of 100 μg): 100%
- Delayed Response (TV > 10 and <2000 mm^3) (subcutaneous CT26 tumors [1]; [7]): 10% ^c
- Treatment Failure (TV > 2000 mm^3) (subcutaneous CT26 tumors [1]; [7]): 44% ^c
- Delayed Response (TV > 10 and <2000 mm^3) (subcutaneous CT26 tumors [1]; [8]): 0%
- Treatment Failure (TV > 2000 mm^3) (subcutaneous CT26 tumors [1]; [8]): 10%
- Complete Response (TV < 10 mm^3) (subcutaneous CT26 tumors [1]; [9]): 0%
- Delayed Response (TV > 10 and <2000 mm^3) (subcutaneous CT26 tumors [1]; [9]): 0%
- Treatment Failure (TV > 2000 mm^3) (subcutaneous CT26 tumors [1]; [9]): 100%
- TV at end of study of animal with delayed response (subcutaneous CT26 tumors [1]; Table 4 study, 100 μg IT): 18 mm^3
- Delayed Response (TV > 10 and <2000 mm^3) (subcutaneous CT26 tumors [1]; Table 4 study, 100 μg IT): 10% ^b
- Treatment Failure (TV > 2000 mm^3) (subcutaneous CT26 tumors [1]; Table 4 study, 100 μg IT): 50%
- Complete Response (TV < 10 mm^3) (subcutaneous CT26 tumors [1]; Table 4 study, 100 μg IT, n = 10): 40%
- Median Time to Endpoint (subcutaneous CT26 tumors [1]; Table 4 study, 100 μg IT): 38.0 days
- Delayed Response (TV > 10 and <2000 mm^3) (subcutaneous CT26 tumors [1]; Table 4 study, 1 mg/kg SC): 0%
- Treatment Failure (TV > 2000 mm^3) (subcutaneous CT26 tumors [1]; Table 4 study, 1 mg/kg SC): 100%
- Complete Response (TV < 10 mm^3) (subcutaneous CT26 tumors [1]; Table 4 study, 1 mg/kg SC, n = 10): 0%
- Median Time to Endpoint (subcutaneous CT26 tumors [1]; Table 4 study, 1 mg/kg SC): 21.0 days
- TV at end of study of animal with delayed response (subcutaneous CT26 tumors [1]; Table 4 study, 4 mg/kg SC): 1568 mm^3
- Delayed Response (TV > 10 and <2000 mm^3) (subcutaneous CT26 tumors [1]; Table 4 study, 4 mg/kg SC): 10% ^a
- Treatment Failure (TV > 2000 mm^3) (subcutaneous CT26 tumors [1]; Table 4 study, 4 mg/kg SC): 80%
- Complete Response (TV < 10 mm^3) (subcutaneous CT26 tumors [1]; Table 4 study, 4 mg/kg SC, n = 10): 10%
- Median Time to Endpoint (subcutaneous CT26 tumors [1]; Table 4 study, 4 mg/kg SC): 35.0 days
- Animals with complete response (TV < 10 mm^3) at end of study (subcutaneous CT26 tumors [2]; CT26, 4 mg/kg SC, 3 × q3d): one
- Animals with tumors regressed and undetectable at end of study (subcutaneous CT26 tumors [2]; Table 2 study, 100 μg IT, three doses): 9 of 10
- Stability after incubation with SVPD (in words) [3]: stable
- Plasma cytokines after IT administration (plasma cytokines): increased plasma cytokines IFN-β1, IFN-γ, IL-6, MCP-1, MIP-1α, and TNF-α
- remaining at 24 h [4]: 100%
- STING dependence of cellular activation (IRF reporter) ([5]; HEK 293 R232 cells vs control cells lacking STING expression, 24 hours): dependent on the expression of STING
- EC50 ([5]; Homo sapiens, HEK293, read-out: Reporter Cell Assay EC50, STING Dual Null IRF): > 100 µM
- half-life at 5 µM (Plasma stability, human): > 1 h
- IFN-γ and IL-6 release from iDCs ([6]; 24 h time point): either no increase or only a minimal increase
- Cytokine release from iDCs ([6]; treatment for 24 h, 50 μM (Figure S4)): release of key cytokines IFN-β, IP-10, MIP-1α, MCP-1, and TNF-α
